Values quoted from earlier work in the CATMoS acute toxicity set (Mansouri et al. 2021).
Values joined by “and” are separate entries in the source; they are usually repeats but may differ in a detail not shown here. Equal values may be shown once.

Test: rat acute oral toxicity
Details: in vivo

Question: For `Fc1cc(F)c2nc(C(F)(F)F)[nH]c2c1F`, which LD50 is on record?
Answer: 2.29 mg/kg

Question: With `Nc1c(CC(=O)O)cccc1C(=O)c1ccccc1` as the compound, how does the LD50 read?
Answer: 311 mg/kg

Question: For `CN1C(C(=O)Nc2ccccn2)=C(OC(=O)C23CC4CC(CC(C4)C2)C3)c2sc(Cl)cc2S1(=O)=O`, which LD50 is on record?
Answer: 100 mg/kg

Question: For `COC(=O)[C@H]1[C@H]2C[C@@H]3c4[nH]c5cc(OC)ccc5c4CCN3C[C@H]2C[C@H](OC)[C@@H]1OC`, which LD50 is on record?
Answer: 182 mg/kg

Question: For `Cc1ccc2[nH]c(C(F)(F)F)nc2c1Br`, which LD50 is on record?
Answer: 64 mg/kg

Question: Which LD50 does the source give for `CCCCCCCCCCCCCCCC[n+]1ccccc1` here?
Answer: 200 mg/kg and 475 mg/kg

Question: Which LD50 does the source give for `CCN1CC2CN(C)CC(C1)C2OC(=O)c1ccc(Cl)cc1` (centres undefined) here?
Answer: 200 mg/kg

Question: With `COP(=S)(OC)Oc1ccc(S(N)(=O)=O)cc1` as the compound, how does the LD50 read?
Answer: 160 mg/kg

Question: With `CSCc1cnc(C)c(O)c1CO` as the compound, how does the LD50 read?
Answer: 4300 mg/kg

Question: With `Cc1c(O)cc([N+](=O)[O-])cc1[N+](=O)[O-]` as the compound, how does the LD50 read?
Answer: 25 mg/kg

Question: Which LD50 does the source give for `CCC(C)c1ccccc1OC(N)=O` (centres undefined) here?
Answer: 410 mg/kg

Question: Which LD50 does the source give for `Cc1cccc(N2CC(CO)OC2=O)c1` (centres undefined) here?
Answer: 1220 mg/kg

Question: With `CCCc1ccc(OC)cc1` as the compound, how does the LD50 read?
Answer: 4400 mg/kg

Question: With `O=c1[nH]c2ccccc2n1C1CCN(CCCC(c2ccc(F)cc2)c2ccc(F)cc2)CC1` as the compound, how does the LD50 read?
Answer: 1100 mg/kg

Question: Which LD50 does the source give for `Cc1ccc(N)cc1O` here?
Answer: 3600 mg/kg

Question: Which LD50 does the source give for `CCOP(=S)(OCC)SC1CCSc2ccc(Cl)cc21` (centres undefined) here?
Answer: 63 mg/kg

Question: For `O=NN(CCCl)C(=O)NC1CCCCC1`, which LD50 is on record?
Answer: 70 mg/kg

Question: Which LD50 does the source give for `CCCCNc1ccccc1` here?
Answer: 1620 mg/kg

Question: For `Oc1c(Cl)cc(Cl)cc1Sc1cc(Cl)cc(Cl)c1O`, which LD50 is on record?
Answer: 492 mg/kg

Question: Which LD50 does the source give for `O=C(NCCc1ccc(O)cc1)c1cccnc1` here?
Answer: 8500 mg/kg

Question: Which LD50 does the source give for `O=Cc1ccc(O)cc1O` here?
Answer: 400 mg/kg

Question: With `O=C1c2ccccc2N(C(=O)CN2CCOCC2)CN1c1ccccc1` as the compound, how does the LD50 read?
Answer: 2220 mg/kg and 2140 mg/kg

Question: Which LD50 does the source give for `CCCCN(CCCCO)N=O` here?
Answer: 1800 mg/kg

Question: With `CC1C(C)(C)C2=C(c3ncncc3CC2)C1(C)C` (centres undefined) as the compound, how does the LD50 read?
Answer: 500 mg/kg

Question: For `CCCCN1CCCC1=Nc1ccc(Cl)c(Cl)c1`, which LD50 is on record?
Answer: 3050 mg/kg

Question: Which LD50 does the source give for `O=C(O)CCC(=O)OC1CCCCC1` here?
Answer: 6500 mg/kg

Question: For `O=C(O)c1nn(Cc2ccc(Cl)cc2Cl)c2ccccc12`, which LD50 is on record?
Answer: 1700 mg/kg

Question: With `N#CS/C=C/SC#N` as the compound, how does the LD50 read?
Answer: 77 mg/kg

Question: Which LD50 does the source give for `CC(O)COS(C)(=O)=S` (centres undefined) here?
Answer: 794 mg/kg

Question: Which LD50 does the source give for `COc1ccc(CCN(C)CCc2ccc(OC)c(OC)c2)cc1OC` here?
Answer: 178 mg/kg

Question: Which LD50 does the source give for `O=C(O)c1nn(Cc2ccc(Cl)cc2)c2ccccc12` here?
Answer: 1140 mg/kg

Question: For `CCCCCCCCCCCCCCCCCCOP(=O)([O-])OCC[N+]1(C)CCCCC1`, which LD50 is on record?
Answer: 631 mg/kg

Question: Which LD50 does the source give for `CN(C)CCCn1c2ccccc2c(=O)c2c([N+](=O)[O-])cccc21` here?
Answer: 53.3 mg/kg

Question: With `CCc1cnc(C(=O)O)c(C(=O)O)c1` as the compound, how does the LD50 read?
Answer: 3350 mg/kg

Question: Which LD50 does the source give for `COc1ccc(Oc2ccc(NC(=O)N(C)C)cc2)cc1` here?
Answer: 1000 mg/kg

Question: With `CCCCCCCCCCCCOC(=O)CS(=O)(=O)O` as the compound, how does the LD50 read?
Answer: 700 mg/kg

Question: With `CN(C)c1ccc(N=Nc2ccc(S(=O)(=O)O)cc2)cc1` as the compound, how does the LD50 read?
Answer: 60 mg/kg

Question: For `CC(=O)Oc1ccc(C2(c3ccc(OC(C)=O)cc3)Oc3ccccc3NC2=O)cc1`, which LD50 is on record?
Answer: 8000 mg/kg

Question: For `C=CCC(CC=C)(C(=O)OCCN(CC)CC)c1ccccc1`, which LD50 is on record?
Answer: 1500 mg/kg

Question: With `CN(C)C1CCCCC1` as the compound, how does the LD50 read?
Answer: 348 mg/kg

Question: For `Cc1cc2[nH]c(C(F)(F)F)nc2cc1Cl`, which LD50 is on record?
Answer: 55 mg/kg

Question: With `CC(C)CCCCCCCCCCO` as the compound, how does the LD50 read?
Answer: 17000 mg/kg

Question: With `CN(CC#N)N=O` as the compound, how does the LD50 read?
Answer: 45 mg/kg

Question: With `CCC(=O)Nc1cccc(OC(=O)NC)c1` as the compound, how does the LD50 read?
Answer: 1000 mg/kg

Question: Which LD50 does the source give for `FC(F)(F)c1cccc(CNC2=NCCS2)c1` here?
Answer: 50 mg/kg

Question: Which LD50 does the source give for `CCC1Cc2cc(CC(=O)O)ccc2O1` (centres undefined) here?
Answer: 1300 mg/kg

Question: Which LD50 does the source give for `Nn1cnnc1` here?
Answer: 4800 mg/kg and 13600 mg/kg

Question: Which LD50 does the source give for `O=NN(Cc1ccccc1)Cc1ccccc1` here?
Answer: 900 mg/kg

Question: Which LD50 does the source give for `CC(C)=CCC(CCN1CCCC1)(C(N)=O)c1cccc2ccccc12` (centres undefined) here?
Answer: 71 mg/kg

Question: With `O=[N+]([O-])c1ccc(O)c(Cl)c1` as the compound, how does the LD50 read?
Answer: 900 mg/kg

Question: Which LD50 does the source give for `Cc1ccc(N(SC(F)(Cl)Cl)S(=O)(=O)N(C)C)cc1` here?
Answer: 1000 mg/kg

Question: For `COc1ccc2c(c1)N(CCCN(C)C)c1ccccc1S2`, which LD50 is on record?
Answer: 730 mg/kg

Question: With `CCOC(=S)SSSC(=S)OCC` as the compound, how does the LD50 read?
Answer: 235 mg/kg

Question: With `CC(C)Oc1cc(-n2nc(C(C)(C)C)oc2=O)c(Cl)cc1Cl` as the compound, how does the LD50 read?
Answer: 3500 mg/kg

Question: With `O=C1c2ccccc2CCC1CNCCc1ccc(O)cc1` (centres undefined) as the compound, how does the LD50 read?
Answer: 650 mg/kg

Question: With `CCCOC(=O)COc1cccc(C(C)(C)C)c1` as the compound, how does the LD50 read?
Answer: 1800 mg/kg

Question: Which LD50 does the source give for `C=CCN(CC=C)C(=O)CCl` here?
Answer: 700 mg/kg

Question: Which LD50 does the source give for `Cc1cccc(C(C)c2ccccc2)c1C` (centres undefined) here?
Answer: 2050 mg/kg

Question: With `CCOC(=O)C1CCCCC1` as the compound, how does the LD50 read?
Answer: 3960 mg/kg
